Key:
C. violaceum CV026 [1] = test: Preliminary screening of bacterial quorum sensing agonistic / inhibitory activity on LB plate (purple stain / white circle); type: cell-based; conditions: for Regulatory activity (bacterial quorum sensing): 1 μl of 0.065M compound spotted on LB plate with C. violaceum CV026, without (agonistic) or with inducer C6-HSL (inhibitory), 30° C., 16-18 h
Description: 1.1 Preparation work: different compounds to be tested (Compounds 1-29 prepared in Example 1-29 and intermediates 1-3) were weighted and then were dissolved in 200 μl DMSO (dimethyl sulfoxide) to prepare a solution at a concentration of 0.065M. 5.0 mg inducer, N-hexanoyl homoserine lactone (C6-HSL, purchased from Sigma Company), was weighted and was dissolved in 200 μl DMSO (at a concentration of 0.125M), and the compounds and the inducer were stored at 4[…] for further use. C. violaceum CV026 (donated by Professor McLean J C from Texas State University) in LB culture medium (LB culture medium consisting of 1% (percentage by mass) tryptone, 0.5% (percentage by mass) yeast extract, 1% (percentage by mass) NaCl and water) was cultured under shaking in a shaker at 30 °C, 200 rpm to get the culture medium for further use.
1.2 Method for preliminary screening of compounds having agonistic activity: 400 μl C. violaceum CV026 (at a bacterial concentration of 1×10^8/ml) was added to 5 ml melted semi-solid LB culture medium, and was mixed well; the mixed culture medium was poured into a solid LB plate; when the mixed culture medium was solidified on the plate, lattice was made thereon; 1 μl of the dissolved compounds to be tested (Compounds 1-29 in Examples 1-29, at a concentration of 0.065M) was spotted on the plate; when the compounds on the plate was dried in air, the plate was put in a 30° C. oven upside down and was cultured for a period of 16-18 h. If the compound to be tested has an agonistic effect on C. violaceum CV026 on the LB plate, purple stain will be induced on the LB plate. The agonistic activity of a compound is determined depending on whether purple stain is induced for C. violaceum CV026 on LB plate as well as the purple depth.
1.3 Method for preliminary screening of compounds having inhibitory activity: the inducer C6—HSL was diluted gradiently to 1000 times by means of 2-fold dilution; 15 μl diluted inducer and 400 μl C. violaceum CV026 in exponential phase (at a bacterial concentration of 1×10^8/ml) were mixed well and then were added to a 5 ml melted semi-solid LB culture medium; the mixture of inducer, C. violaceum, and semi-solid LB was poured onto a solid LB plate; when the mixture was solidified on the plate, lattice was made thereon; 1 μl of the dissolved compounds to be tested (Compounds 1-29 prepared in Example 1-29 and intermediates 1-3, at a concentration of 0.065M) was spotted on the plate; when the compounds on the plate were dried in air, the plate was put in a 30° C. oven upside down and was cultured for a period of 16-18 h. […] The inhibitory activity of a compound is preliminary determined depending on the size of the white circle appeared after C. violaceum CV026 was inhibited on LB plate.

C. violaceum CV026 [2] = test: Measurement of IC50 of compounds having an inhibitory effect on C. violaceum quorum sensing (purple pigment absorbance at 585 nm); type: cell-based; conditions: Chromobacterium violaceum, read-out: IC50 of compounds having bacterial quorum sensing inhibitory activity
Description: 2.1 The wells of a 12-well plate were marked as initial concentration, 2, 4, 8, 16, 32, 64, 128, 256, DMSO group, and a blank control group from left to right and from up to bottom, respectively.
2.2 The monoclonal C. violaceum CV026 grew on LB solid plate was cultured to exponational phase in a 5 ml fresh LB liquid culture medium, 50 μl was then taken for seeding in a 5 ml LB culture medium, and was cultured until the optical density OD value was about 1.0 at 585 nm; the culture was then mixed well with LB culture medium at a ratio of 1:9 by volume (with OD of about 0.15), and was added to a 12-well plate in an amount of 2 ml/well.
2.3 The compounds preliminarily screened to have quorum sensing inhibitory activity were dissolved respectively in DMSO (at a concentration of 0.065M), and then 10 μl was taken into 10 μl DMSO solution to achieve the purpose of 2-fold dilution, and so on. Each compound was gradiently diluted to a highest fold of 256 (gradient dilution of 2, 4, 8, 16, 32, 64, 128, 256 fold).
2.4 To each well, 15 μl 1000-fold diluted inducer C6—HSL (initial concentration of 0.125M) and 8 μl compound solution at each diluted gradient was added; to DMSO control group, 8 μl DMSO was added; to a blank control group, 8 μl LB culture medium was added. Finally, it was ensured that 2 ml culture in each of the 12-well plate was mixed well.
2.5 The 12-well plate was placed in a 30° C. shaker at 130 rpm and was cultured for 10-12 h.
2.6 After the culture was finished, 1 ml culture was taken from each well and was put in a 1.5 ml EP tube and then was centrifugated at 12000 rpm for 10 mins. The supernatant of the culture was sucked out, and 500 μl DMSO was added to each EP tube to dissolve the purple pigment in the culture. After the pigment was completely dissolved, centrifugation was performed at 12000 rpm for 10 mins. 200 μl supernatant pigment was put in a 96-well culture plate, and was measured for absorbance value at 585 nm by a Microplate Reader, […] the absorbance value and the corresponding concentration were plotted to get the IC50 value.

SMILES	Regulatory activity (bacterial quorum sensing) (C. violaceum CV026 [1])	melting point [°C]	inhibitory or agonizing effect on bacterial quorum sensing (in words) (C. violaceum CV026 [1])	IC50 (C. violaceum CV026 [2]) [µM]
O=C(Nc1ccc(S(=O)(=O)N[C@H]2CCOC2=O)cc1)c1ccc(Cl)cc1 [Compound 14, (S)-4-chloro-N-(4-(N-(2-oxotetrahydrofuran-3-yl)sulfamoyl)phenyl)benzamide]	−			
CCCCCCC(=O)Nc1ccc(S(=O)(=O)N[C@H]2CCOC2=O)cc1 [Compound 5, (S)-N-(4-(N-(2-oxotetrahydrofuran-3-yl)sulfamoyl)phenyl)heptamide]	−	143 to 144		
CCCCCCCC(=O)Nc1ccc(S(=O)(=O)N[C@H]2CCOC2=O)cc1 [Compound 6, (S)-N-(4-(N-(2-oxotetrahydrofuran-3-yl)sulfamoyl)phenyl)octanamide]	−	146 to 148		
CCCc1ccc(C(=O)Nc2ccc(S(=O)(=O)N[C@H]3CCOC3=O)cc2)cc1		247 to 249		
O=C(Nc1ccc(S(=O)(=O)N[C@H]2CCOC2=O)cc1)c1ccc(Br)cc1 [Compound 12, (S)-4-bromo-N-(4-(N-(2-oxotetrahydrofuran-3-yl)sulfamoyl)phenyl)benzamide]	±	112 to 113	both an agonizing effect and an inhibitory effect	
CCCCCC(=O)Nc1ccc(S(=O)(=O)N[C@H]2CCOC2=O)cc1 [Compound 4, (S)-N-(4-(N-(2-oxotetrahydrofuran-3-yl)sulfamoyl)phenyl)hexanamide]	−	142 to 143		29 ± 2.41
O=C(Nc1ccc(S(=O)(=O)N[C@H]2CCOC2=O)cc1)c1ccccc1C(F)(F)F [Compound 27, (S)-2-trifluoromethyl-N-(4-(N-(2-oxotetrahydrofuran-3-yl)sulfamoyl)phenyl)benzamide]	−	186 to 187		4.91 ± 0.97
O=C(Nc1ccc(S(=O)(=O)N[C@H]2CCOC2=O)cc1)c1ccc(F)cc1 [Compound 17, (S)-4-fluoro-N-(4-(N-(2-oxotetrahydrofuran-3-yl)sulfamoyl)phenyl)benzamide]	−	236 to 237		14.7 ± 2.58
CCOc1ccc(C(=O)Nc2ccc(S(=O)(=O)N[C@H]3CCOC3=O)cc2)cc1		256 to 258		
CCCCC(=O)Nc1ccc(S(=O)(=O)N[C@H]2CCOC2=O)cc1 [Compound 3, (S)-N-(4-(N-(2-oxotetrahydrofuran-3-yl)sulfamoyl)phenyl)pentanamide]	−	174 to 176		
CCCC(=O)Nc1ccc(S(=O)(=O)N[C@H]2CCOC2=O)cc1 [Compound 2, (S)-N-(4-(N-(2-oxotetrahydrofuran-3-yl)sulfamoyl)phenyl)butyrylamide]	−	180 to 182		
CCC(=O)Nc1ccc(S(=O)(=O)N[C@H]2CCOC2=O)cc1 [Compound 1, (S)-N-(4-(N-(2-oxotetrahydrofuran-3-yl)sulfamoyl)phenyl) propanamide]	−	179 to 181		
CC(C)(C)c1ccc(C(=O)Nc2ccc(S(=O)(=O)N[C@H]3CCOC3=O)cc2)cc1 [Compound 16, (S)-4-(tert-butyl)-N-(4-(N-(2-oxotetrahydrofuran-3-yl)sulfamoyl)phenyl)benzamide]	−	207 to 208		
CC(=O)Nc1ccc(S(=O)(=O)N[C@H]2CCOC2=O)cc1 [Intermediate 2, (S)-N-(4-(N-(2-oxotetrahydrofuran-3-yl)sulfamoyl)phenyl)acetamide]	−			
N#Cc1ccc(C(=O)Nc2ccc(S(=O)(=O)N[C@H]3CCOC3=O)cc2)cc1		230 to 231		
O=C(Cc1ccccc1)Nc1ccc(S(=O)(=O)N[C@H]2CCOC2=O)cc1		157 to 158		
CCCCCCCCC(=O)Nc1ccc(S(=O)(=O)N[C@H]2CCOC2=O)cc1		150 to 152		
O=C(Nc1ccc(S(=O)(=O)N[C@H]2CCOC2=O)cc1)c1cccc(Cl)c1 [Compound 22, (S)-3-chloro-N-(4-(N-(2-oxotetrahydrofuran-3-yl)sulfamoyl)phenyl)benzamide]	−	213 to 214		
O=C(Nc1ccc(S(=O)(=O)N[C@H]2CCOC2=O)cc1)c1cccc(F)c1 [Compound 23, (S)-3-fluoro-N-(4-(N-(2-oxotetrahydrofuran-3-yl)sulfamoyl)phenyl)benzamide]	−			7.79 ± 2.68
Cc1cccc(C(=O)Nc2ccc(S(=O)(=O)N[C@H]3CCOC3=O)cc2)c1 [Compound 20, (S)-3-methyl-N-(4-(N-(2-oxotetrahydrofuran-3-yl)sulfamoyl)phenyl)benzamide]	−	193 to 194		
O=C(Nc1ccc(S(=O)(=O)N[C@H]2CCOC2=O)cc1)c1ccccc1F [Compound 24, (S)-2-fluoro-N-(4-(N-(2-oxotetrahydrofuran-3-yl)sulfamoyl)phenyl)benzamide]	−			1.64 ± 0.27
Br.NC1CCOC1=O (stereo not drawn) [Intermediate 1, (L)-homoserine lactone hydrobromide]	+			
O=C(Nc1ccc(S(=O)(=O)N[C@H]2CCOC2=O)cc1)c1ccc(CCl)cc1 [Compound 15, (S)-4-(chloromethyl)-N-(4-(N-(2-oxotetrahydrofuran-3-yl)sulfamoyl)phenyl)benzamide]	+	251 to 253	agonizing effect	
O=C(Nc1ccc(S(=O)(=O)N[C@H]2CCOC2=O)cc1)c1ccc([N+](=O)[O-])cc1		257 to 258		
O=C(Nc1ccc(S(=O)(=O)N[C@H]2CCOC2=O)cc1)c1ccccc1Cl [Compound 28, (S)-2-chloro-N-(4-(N-(2-oxotetrahydrofuran-3-yl)sulfamoyl)phenyl)benzamide]	−			1.66 ± 0.33
O=C(Nc1ccc(S(=O)(=O)N[C@H]2CCOC2=O)cc1)c1ccccc1 [Compound 9, (S)-N-(4-(N-(2-oxotetrahydrofuran-3-yl)sulfamoyl)phenyl)benzamide]	−			17.2 ± 2.6

From patent publication US9630939B2, “Derivative of homoserine lactone, and preparation method and use thereof” (priority 2013, dated 2017)
